Values joined by “and” are separate entries in the source; they are usually repeats but may differ in a detail not shown here. Equal entries are not always repeated. “Also recorded” adds a separate entry of the source.
test system: LNCaP human prostatic cancer cell; test: Androgen-stimulated growth of LNCaP human prostatic cancer cells in vitro; settings: Homo sapiens, LNCaP, read-out: Inhibition of DHT-induced growth of LNCaP cells

SMILES	inhibition at 2.5 µM [%]
C[C@]12CC[C@H](O)CC1=CC[C@@H]1[C@@H]2CC[C@]2(C)C(n3ccnc3)=CC[C@@H]12 [Compound 11, 3β-hydroxy-17-(1H-imidazol-1-yl)androsta-5,16-diene]	100

same assay, conditions: Homo sapiens, LNCaP, read-out: Inhibition of testosterone-stimulated growth of LNCaP cells

SMILES	inhibition at 1 µM [%]
C[C@]12CC[C@H](O)CC1=CC[C@@H]1[C@@H]2CC[C@]2(C)C(n3ccnc3)=CC[C@@H]12 [Compound 11, 3β-hydroxy-17-(1H-imidazol-1-yl)androsta-5,16-diene]	100

same assay, conditions: concentration range 0.5-5.0 μM

SMILES	Toxicity to LNCaP cells
C[C@]12CC[C@H](O)CC1=CC[C@@H]1[C@@H]2CC[C@]2(C)C(n3ccnc3)=CC[C@@H]12 [Compound 11, 3β-hydroxy-17-(1H-imidazol-1-yl)androsta-5,16-diene]	nor was toxic to the cells

same assay, conditions: inferred from inhibition of androgen-stimulated LNCaP growth

SMILES	Antiandrogenic effects
C[C@]12CC[C@H](O)CC1=CC[C@@H]1[C@@H]2CC[C@]2(C)C(n3ccnc3)=CC[C@@H]12 [Compound 11, 3β-hydroxy-17-(1H-imidazol-1-yl)androsta-5,16-diene]	strong antiandrogenic effects

molecular target: T1, human prostate 5α-reductase (Homo sapiens, UniProt P31213); test: Inhibition of human prostate 5α-reductase in BPH microsomes (conversion of [7-3H]-testosterone to DHT); format: biochemical; settings: not given
T1 construct: The enzymatic reactions were initiated by addition of human BPH microsomes; from tissue; host or cells: human benign prostatic hyperplasia (BPH) tissue, microsomal fraction
T1 sequence (P31213 1-254): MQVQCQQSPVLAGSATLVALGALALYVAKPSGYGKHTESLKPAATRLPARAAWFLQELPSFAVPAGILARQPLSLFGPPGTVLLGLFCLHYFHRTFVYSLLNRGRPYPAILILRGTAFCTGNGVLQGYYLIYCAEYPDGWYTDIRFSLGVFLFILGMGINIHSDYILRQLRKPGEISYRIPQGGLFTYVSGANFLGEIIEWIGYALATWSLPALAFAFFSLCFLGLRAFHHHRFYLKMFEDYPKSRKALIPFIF
Procedure: […] The ethanol was evaporated to dryness under a gentle stream of air. […] The enzymatic reactions were initiated by addition of human BPH microsomes (about 180 μg of microsomal protein in 500 μl of phosphate buffer) in a total volume of 1.0 ml, and the incubations were performed for 10 min under oxygen in a shaking water bath at 37° C. The incubations were terminated by placing the sample tubes on ice and the addition of ether. Also, [^14C]-DHT (3000 dpm) and cold DHT (50 μg) were added to each tube as an internal standard and visualization marker, respectively. The steroids were extracted with ether and separated by TLC (chloroform:ether, 80:20) and visualized by exposure to iodine vapor. The extracts were analyzed for ^3H and ^14C using a liquid scintillation counter. The percentage conversion of [7-^3H]-testosterone to [^3H]-dihydrotestosterone was calculated and used to determine 5α-reductase activity.

SMILES	IC50 [µM]
C[C@]12CC[C@H](O)CC1=CC[C@@H]1[C@@H]2CC[C@]2(C)C(n3ccnc3)=CC[C@@H]12 [Compound 11, 3β-hydroxy-17-(1H-imidazol-1-yl)androsta-5,16-diene]	~400
C[C@]12CC[C@H]3[C@@H](CCC4=CC(=O)CC[C@@]43C)[C@@H]1CC[C@@H]2n1ccnc1 [Compound 14, 17β-(1H-imidazol-1-yl)androst-4-ene-3-one]	0.765 ± 0.1

same assay, conditions: human BPH microsomes; mean ± SDM of at least two experiments; read-out: 5α-Reductase IC50

SMILES	IC50 [µM]
C[C@]12CCC(=O)C=C1CC[C@@H]1[C@@H]2CC[C@]2(C)C(n3cncn3)=CC[C@@H]12 [Compound 7, 17-(1H, 1,2,4-triazol-1-yl)androsta-4,16-diene-3-one]	0.152 ± 0.01
C[C@]12CCC(=O)C=C1CC[C@@H]1[C@@H]2CC[C@]2(C)C(n3ccnc3)=CC[C@@H]12 [Compound 12, 17-(1H-imidazol-1-yl)androsta-4,16-diene-3-one]	0.142 ± 0.005

same assay, conditions: human prostate enzyme

SMILES	Inhibition of 5α-reductase, in words
C[C@]12CCC(=O)C=C1CC[C@@H]1[C@@H]2CC[C@]2(C)C(n3cncn3)=CC[C@@H]12 [Compound 7, 17-(1H, 1,2,4-triazol-1-yl)androsta-4,16-diene-3-one]	potent inhibitors
C[C@]12CC[C@H](O)CC1=CC[C@@H]1[C@@H]2CC[C@]2(C)C(n3ccnc3)=CC[C@@H]12 [Compound 11, 3β-hydroxy-17-(1H-imidazol-1-yl)androsta-5,16-diene]	poor inhibitors; also recorded: neither compound inhibited 5α-reductase
C[C@]12CCC(=O)C=C1CC[C@@H]1[C@@H]2CC[C@]2(C)C(n3ccnc3)=CC[C@@H]12 [Compound 12, 17-(1H-imidazol-1-yl)androsta-4,16-diene-3-one]	potent inhibitors

molecular target: T2, Human P45017α (Homo sapiens, UniProt P05093); test: Inhibition of human testicular microsomal P45017α (lyase activity, release of C3H3COOH from [21-3H3]-17α-hydroxypregnenolone); format: biochemical; settings: not given
T2 construct: Human testicular microsomes were prepared from human testes; from tissue; host or cells: human testes (untreated prostatic cancer patients undergoing orchidectomy), microsomal fraction
T2 sequence (P05093 1-508): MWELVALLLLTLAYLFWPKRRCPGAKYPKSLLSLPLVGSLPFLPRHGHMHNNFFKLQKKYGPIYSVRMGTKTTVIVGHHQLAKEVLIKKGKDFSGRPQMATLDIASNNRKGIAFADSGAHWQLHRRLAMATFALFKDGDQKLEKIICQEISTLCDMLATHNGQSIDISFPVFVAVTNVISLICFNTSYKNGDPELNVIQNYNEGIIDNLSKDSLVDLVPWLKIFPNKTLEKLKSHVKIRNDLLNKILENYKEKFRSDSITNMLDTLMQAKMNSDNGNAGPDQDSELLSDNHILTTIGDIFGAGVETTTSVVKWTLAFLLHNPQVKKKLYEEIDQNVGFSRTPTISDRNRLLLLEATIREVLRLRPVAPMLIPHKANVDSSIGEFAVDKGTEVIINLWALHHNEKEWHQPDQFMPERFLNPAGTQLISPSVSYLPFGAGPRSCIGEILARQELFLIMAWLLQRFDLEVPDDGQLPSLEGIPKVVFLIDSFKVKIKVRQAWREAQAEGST
Procedure: (§1) The microsomes were stored at −70° C. until assayed. Just before use, the thawed microsomes were diluted with 0.1 M phosphate buffer (pH 7.4) to appropriate concentrations.
(§2) This assay measures only the lyase activity of the P45017α enzyme.
(§3) IC50 values for inhibitors were calculated from the linear regression line in the plot of logit of lyase activity versus log of inhibitor concentration. […] Each inhibitor was examined at three concentrations.

SMILES	IC50 [µM]
C[C@]12CC[C@H](O)CC1=CC[C@@H]1[C@@H]2CC[C@]2(C)C(n3ccnc3)=CC[C@@H]12 [Compound 11, 3β-hydroxy-17-(1H-imidazol-1-yl)androsta-5,16-diene]	0.008
C[C@]12CCC(=O)C=C1CC[C@@H]1[C@@H]2CC[C@]2(C)C(n3ccnc3)=CC[C@@H]12 [Compound 12, 17-(1H-imidazol-1-yl)androsta-4,16-diene-3-one]	0.007 ± 0.001
C[C@]12CC[C@H]3[C@@H](CCC4=CC(=O)CC[C@@]43C)[C@@H]1CC[C@@H]2n1ccnc1 [Compound 14, 17β-(1H-imidazol-1-yl)androst-4-ene-3-one]	0.036

same assay, conditions: Human P45017α Ki

SMILES	Ki [µM]
C[C@]12CC[C@H](O)CC1=CC[C@@H]1[C@@H]2CC[C@]2(C)C(n3ccnc3)=CC[C@@H]12 [Compound 11, 3β-hydroxy-17-(1H-imidazol-1-yl)androsta-5,16-diene]	0.0012

same assay, conditions: Human P45017α Ki, from Lineweaver-Burk plots and slope replots; Km of 17α-hydroxypregnenolone 560 nM

SMILES	Ki
C[C@]12CCC(=O)C=C1CC[C@@H]1[C@@H]2CC[C@]2(C)C(n3ccnc3)=CC[C@@H]12 [Compound 12, 17-(1H-imidazol-1-yl)androsta-4,16-diene-3-one]	0.0018 µM and 0.0019 µM

same assay, conditions: Lineweaver-Burk analysis; progress curves

SMILES	Nature of inhibition kinetics of P45017α
C[C@]12CC[C@H](O)CC1=CC[C@@H]1[C@@H]2CC[C@]2(C)C(n3ccnc3)=CC[C@@H]12 [Compound 11, 3β-hydroxy-17-(1H-imidazol-1-yl)androsta-5,16-diene]	slow-binding inhibitor

same assay, conditions: human testicular microsomes

SMILES	Inhibition of human P45017α, in words
C[C@]12CCC(=O)C=C1CC[C@@H]1[C@@H]2CC[C@]2(C)C(n3cncn3)=CC[C@@H]12 [Compound 7, 17-(1H, 1,2,4-triazol-1-yl)androsta-4,16-diene-3-one]	powerful inhibitors
C[C@]12CC[C@H](O)CC1=CC[C@@H]1[C@@H]2CC[C@]2(C)C(n3ccnc3)=CC[C@@H]12 [Compound 11, 3β-hydroxy-17-(1H-imidazol-1-yl)androsta-5,16-diene]	potent inhibitors; also recorded: powerful inhibitors
C[C@]12CCC(=O)C=C1CC[C@@H]1[C@@H]2CC[C@]2(C)C(n3ccnc3)=CC[C@@H]12 [Compound 12, 17-(1H-imidazol-1-yl)androsta-4,16-diene-3-one]	powerful inhibitors
CC(=O)N1CCN(c2ccc(OCC3COC(Cn4ccnc4)(c4ccc(Cl)cc4Cl)O3)cc2)CC1 (stereo not shown) [Ketoconazole, reference compound]	strong inhibition

same assay, conditions: human testicular microsomes; mean ± SDM of at least two experiments; read-out: Human P45017α IC50

SMILES	IC50 [µM]
C[C@]12CCC(=O)C=C1CC[C@@H]1[C@@H]2CC[C@]2(C)C(n3cncn3)=CC[C@@H]12 [Compound 7, 17-(1H, 1,2,4-triazol-1-yl)androsta-4,16-diene-3-one]	0.055 ± 0.011

same assay, conditions: read-out: % Inhibition of human P45017α

SMILES	inhibition at 0.15 µM [%]
C[C@]12CC[C@H](O)CC1=CC[C@@H]1[C@@H]2CC[C@]2(C)C(n3ccnc3)=CC[C@@H]12 [Compound 11, 3β-hydroxy-17-(1H-imidazol-1-yl)androsta-5,16-diene]	97

molecular target: T3, Rat P45017α (Rattus norvegicus, UniProt P11715); test: Inhibition of rat testicular microsomal P45017α (lyase activity); format: biochemical; settings: not given
T3 sequence (P11715 1-507): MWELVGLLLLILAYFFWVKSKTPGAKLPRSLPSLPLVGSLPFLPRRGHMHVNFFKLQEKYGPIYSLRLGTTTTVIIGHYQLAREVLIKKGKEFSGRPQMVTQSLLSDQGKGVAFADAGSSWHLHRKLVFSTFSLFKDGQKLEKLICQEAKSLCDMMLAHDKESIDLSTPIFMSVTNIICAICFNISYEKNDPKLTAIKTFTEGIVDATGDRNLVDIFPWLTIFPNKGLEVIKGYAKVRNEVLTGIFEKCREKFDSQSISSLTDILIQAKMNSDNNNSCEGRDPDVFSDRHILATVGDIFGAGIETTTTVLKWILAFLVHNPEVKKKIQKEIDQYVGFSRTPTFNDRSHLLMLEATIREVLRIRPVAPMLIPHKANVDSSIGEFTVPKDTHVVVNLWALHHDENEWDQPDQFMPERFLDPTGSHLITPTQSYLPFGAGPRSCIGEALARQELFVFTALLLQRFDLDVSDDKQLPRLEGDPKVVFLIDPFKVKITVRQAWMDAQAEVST
Procedure: as §1, §2, §3

SMILES	IC50 [µM]
C[C@]12CC[C@H](O)CC1=CC[C@@H]1[C@@H]2CC[C@]2(C)C(n3ccnc3)=CC[C@@H]12 [Compound 11, 3β-hydroxy-17-(1H-imidazol-1-yl)androsta-5,16-diene]	0.009 ± 0.002

same assay, conditions: from IC50 values, rat vs human testicular microsomes

SMILES	Increase of potency towards the rat enzyme compared with human P45017α	Decrease of potency towards the rat enzyme compared with human P45017α
C[C@]12CCC(=O)C=C1CC[C@@H]1[C@@H]2CC[C@]2(C)C(n3cncn3)=CC[C@@H]12 [Compound 7, 17-(1H, 1,2,4-triazol-1-yl)androsta-4,16-diene-3-one]	5 fold	–
C[C@]12CC[C@H](O)CC1=CC[C@@H]1[C@@H]2CC[C@]2(C)C(n3ccnc3)=CC[C@@H]12 [Compound 11, 3β-hydroxy-17-(1H-imidazol-1-yl)androsta-5,16-diene]	unchanged	–
C[C@]12CCC(=O)C=C1CC[C@@H]1[C@@H]2CC[C@]2(C)C(n3ccnc3)=CC[C@@H]12 [Compound 12, 17-(1H-imidazol-1-yl)androsta-4,16-diene-3-one]	unchanged	–
CC(=O)N1CCN(c2ccc(OCC3COC(Cn4ccnc4)(c4ccc(Cl)cc4Cl)O3)cc2)CC1 (stereo not shown) [Ketoconazole, reference compound]	–	about 3 fold

same assay, conditions: rat testicular microsomes

SMILES	Inhibition of rat testicular P45017α, in words
C[C@]12CCC(=O)C=C1CC[C@@H]1[C@@H]2CC[C@]2(C)C(n3cncn3)=CC[C@@H]12 [Compound 7, 17-(1H, 1,2,4-triazol-1-yl)androsta-4,16-diene-3-one]	powerful inhibitors
C[C@]12CC[C@H](O)CC1=CC[C@@H]1[C@@H]2CC[C@]2(C)C(n3ccnc3)=CC[C@@H]12 [Compound 11, 3β-hydroxy-17-(1H-imidazol-1-yl)androsta-5,16-diene]	powerful inhibitors
C[C@]12CCC(=O)C=C1CC[C@@H]1[C@@H]2CC[C@]2(C)C(n3ccnc3)=CC[C@@H]12 [Compound 12, 17-(1H-imidazol-1-yl)androsta-4,16-diene-3-one]	powerful inhibitors

same assay, conditions: rat testicular microsomes; mean ± SDM of at least two experiments; read-out: Rat P45017α IC50

SMILES	IC50 [µM]
C[C@]12CCC(=O)C=C1CC[C@@H]1[C@@H]2CC[C@]2(C)C(n3cncn3)=CC[C@@H]12 [Compound 7, 17-(1H, 1,2,4-triazol-1-yl)androsta-4,16-diene-3-one]	0.011 ± 0.003
C[C@]12CCC(=O)C=C1CC[C@@H]1[C@@H]2CC[C@]2(C)C(n3ccnc3)=CC[C@@H]12 [Compound 12, 17-(1H-imidazol-1-yl)androsta-4,16-diene-3-one]	0.008 ± 0.0007
CC(=O)N1CCN(c2ccc(OCC3COC(Cn4ccnc4)(c4ccc(Cl)cc4Cl)O3)cc2)CC1 (stereo not shown) [Ketoconazole, reference compound]	0.209 ± 0.017

From patent publication US6444683B2, “17-azolyl steroids useful as androgen synthesis inhibitors” (University of Maryland at Baltimore, priority 1997, dated 2002)
